Experimental data from US20080051413A1, “Nitrophenylpiperazine derivative of xanthine which relaxes tracheal airway and increases respiratory performance” (KAOHSIUNG MEDICAL UNIVERSITY, priority 2006, published 2008).
Where “and” joins values, the source holds several entries; their conditions need not be identical. Equal values may be shown once.

Key:
[1] = system: PDE4 purified from human U-937 pronocytic cells; test: Phosphodiesterase activity, PDE4; format: biochemical; details: 10 _M compound, n = 3
Experimental: Phosphodiesterase Activity: PDE activity was determined by the method of Nicholson et al. (Nicholson C D, Challiss R A, and Shahid M (1991) Differential modulation of tissue function and therapeutic potential of selective inhibitors of cyclic nucleotide phosphodiesterase isonzymes. Trends Pharmaclo Sci 12:19-27). PDE3 and PDE5 purified from human platelets and PDE4 purified from human U-937 pronocytic cells were used. Test compound (10 _M) or vehicle was incubated with 0.2 _g of enzyme and 1 _M cAMP containing 0.01 _M [^3H]cAMP in Tris buffer, pH 7.5, for 20 min at 25_. The reaction was terminated by boiling for 2 min, and the resulting […] was converted to adenosine by the addition of 10 mg/ml snake venom nucleotidase, which is followed by a further incubation at 37_for 10 min. Unhydrolyzed cAMP was bound to AG1-X2 resin, and the remaining [^3H]adenosine in the aqueous phase was quantitated by scintillation counting.

[2] = system: guinea pig tracheal smooth muscle cells; test: Measurement of cAMP in TSMCs; format: cell-based
Experimental: (§1) Cell Culture of Tracheal Smooth Muscle: Guinea pigs (350-450 g) were injected i.p. with a lethal dose of pentobarbital. The tracheas were excised and cut longitudinally through the cartilage. Using a dissecting microscope, TSM strips were dissected from the surrounding parentchyma. The epithelium was removed from the luminal surface, and bands of TSM were gently separated from the underlying connective tissue. Then TSM strips were chopped into small sections (1 mm^3) and incubated in Hanks' balanced salt solution (138 mM NaCl, 4 mM NaHCO3, 5 mM KCl, 0.3 mM KH2PO4, 0.3 mM Na2HPO4, and 1.0 mM glucose) with 0.05% elastase type IV and 0.2% collagenase type IV (Invitrogen, Carlsbad, Calif.) for 30 min at 37_ with gentle shaking. The solution of dissociated smooth muscle cells was centrifuged (6 min at 500 g), and the pellet was resuspended in 1:1 Dulbecco's modified Eagle's medium/Ham's F-12 medium supplemented with 10% fetal bovine serum, 0.244% NaHCO3, and 1% penicillin/streptomycin. Cells were cultured in 25-cm^2 flasks at 37_ in humidified air containing 5% CO2. Confluent cells were detached with 0.25% trypsin-0.02% EDTA at 37_and then subcultured to establish secondary cultures. Cultures were maintained for no more than four passages. They were identified as smooth muscle cells by the typical hill-and-valley appearance, and cellular homogeneity was further confirmed by the presence of smooth muscle specific _-myosin and _-actin immunoreactivity. Indirect immunofluorescence staining for a variety of antigens was carried out by first plating the cells on chamber slides, fixing the cells in 3.7% formaldehyde-phosphate-buffered saline for 10 min, and permeabilizing the cells with phosphate-buffered saline and 0.1% Triton X-100. Cells were then stained with either a mouse monoclonal antibody directed against the amino-terminal 10 amino acids of _-smooth muscle actin or _-myosin (Roche Diagnostics, Indianapolis, Ind.). All cells were stained with fluorescein-labeled goat anti-mouse IgG antibody (Roche Diagnostics).
(§2) Measurement of cAMP and cGMP: Intracellular concentrations of cAMP and cGMP in TSMCs were measured as in our previous reports (Wu B N, Lin R J, Lin C Y, Shen K P, Chiang L C, and Chen I J (2001) A xanthine-based KMUP-1 with cyclic GMP enhancing and K^+ channels opening activities in rat aortic smooth muscle. Br J Pharmacol 134:265-274; Lin R J, Wu B N, Lo Y C, Shen K P, Lin Y T, Huang C H, and Chen I J (2002) KMUP-1 relaxes rabbit corpus cavernosum smooth muscle in vitro and in vivo: involvement of cyclic GMP and K(+) channels, Br J Pharmacol 135:1159-1166). In brief, cells were finally grown in 24-well plates (10^5 cells/well). At confluence, monolayer cells were washed with phosphate-buffered saline and then incubated with KMUP-3 (0.01-100 _M) for 20 min at 37_ in medium. […] The reaction was terminated by replacement of medium with 1 ml of ice-cold 1 N hydrochloric acid. Cells suspensions were sonicated and then centrifuged at 2500 g for 15 min at 4_. Then, the supernatants were lyophilized and the cAMP and cGMP of each sample were determined using commercially available radioimmunoassay kits (GE Healthcare, Little Chalfont, Buckinghamshire, UK).

[3] = system: guinea pig tracheal smooth muscle cells; test: Measurement of cGMP in TSMCs; format: cell-based; details: for GMP level: basal 1.18±0.06
Experimental: as §1, §2

## Cn1c(=O)c2c(ncn2CCN2CCN(c3ccc([N+](=O)[O-])cc3)CC2)n(C)c1=O [KMUP-3]
[1]
  PDE4 Inhibition: 48 ± 2.1 %
[2]; 0.01 _M, 20 min, basal 62.6±6.4
  cAMP level: 80.2±2.5 pmol/mg protein
[2]; 0.1 _M, 20 min, basal 62.6±6.4
  cAMP level: 91.3±3.4 pmol/mg protein
[2]; 1 _M, 20 min, basal 62.6±6.4
  cAMP level: 97.9±2.5 pmol/mg protein
[2]; 10 _M, 20 min, basal 62.6±6.4
  cAMP level: 110.7±4.5 pmol/mg protein
[2]; 100 _M compound plus SQ 22536 (100 _M) pretreatment
  cAMP level in presence of SQ 22536: 74.51 ± 3.18 pmol/mg protein
[2]; 100 _M, 20 min
  cAMP accumulation versus vehicle (FIG. 6): significant elevations
[2]; 100 _M, 20 min, basal/vehicle 62.6±6.4
  cAMP level: 127.5±4.8 pmol/mg protein and 128.72 ± 4.57 pmol/mg protein
[3]; 0.01 _M, 20 min
  GMP level: 1.62±0.05 pmol/mg protein
[3]; 0.1 _M, 20 min
  GMP level: 1.73±0.01 pmol/mg protein
[3]; 1 _M, 20 min
  GMP level: 1.75±0.04 pmol/mg protein
[3]; 10 _M, 20 min
  GMP level: 1.86±0.05 pmol/mg protein
[3]; 100 _M compound plus L-NAME (100 _M) pretreatment
  Cyclic GMP level in presence of L-NAME: 1.28 ± 0.01 pmol/mg protein
[3]; 100 _M compound plus ODQ (10 _M) pretreatment
  Cyclic GMP level in presence of ODQ: 1.35 ± 0.04 pmol/mg protein
[3]; 100 _M, 20 min
  amounts of cGMP versus vehicle (FIG. 6): significantly enhances
[3]; 100 _M, 20 min, basal/vehicle 1.18±0.06
  Cyclic GMP level: 1.98±0.09 pmol/mg protein and 1.98 ± 0.08 pmol/mg protein
